Results on two compounds are retold here after patent publication US11187660B2, “Fluorescent probes for monitoring voltage by photo-induced electron transfer” (The Regents of the University of California, priority 2011, dated 2021).

The test system of one data set is HEK cells. Put plainly: Bleach rate in HEK cells. The conditions noted are these: for bleach rate: HEK cells, 7 W/cm^2; for bleach rate, fold smaller than di-4-ANEPPS: identical illumination conditions. In kind it is cell-based, human. The method, then: The dibutyl (VFx.4.Cl) dyes stain the cell membranes of HEK293 cells when loaded at a concentration of 2 μM for 15 min at 37° C. in buffer with 0.1% DMSO as cosolvent (FIG. 9A, and FIG. 10). […] The bleach rates of the probes were tested in HEK cells and compared with di-4-ANEPPS. The bleach rates for VF1.4.Cl, VF2.4.Cl, and VF2.1.Cl at 7 W/cm^2 were measured to be 3.9±0.1×10^−2 s^−1, 1.8±0.1×10^−2 s^−1, and 8.0±0.1×10^−3 s^−1, respectively.
For studies to determine excitation sensitivity of dyes, illumination was provided by a Polychrom IV light source (T.I.L.L. Photonics GMBH) with a mechanical shutter (Uniblitz VS25). For all other studies, light was provided by an Xenon arc lamp powered by an Optiquip Power supply (Optiquip) with a mechanical shutter controlled by a Lambda 10-2 controller (Sutter). Light from the Xenon arc lamp was filtered through a 480 nm filter (30 nm bandpass, Chroma), a 510 nm dichroic (Semrock), a 530 nm emission filter (50 nm bandpass, Semrock), and focused through a 40×/1.4 oil objective. For di-4-ANEPPS imaging, a 625 nm emission filter with a 50 nm bandpass was used. Bleaching studies used identical illumination conditions (480/30 nm excitation, 510 nm dichroic, 7 W/cm^2 output) and were corrected by normalizing for the extinction coefficient at the excitation wavelengths (465-495 nm).

Data set [1] is described as follows: Absorbance and emission spectra in aqueous buffer with Triton X-100. In kind it is physicochemical. The following applies: 5 mM sodium phosphate, pH 9, 0.1% Triton X-100. The method, then:
FIG. 8A, FIG. 8B, and FIG. 8C show the normalized absorbance and emission spectra for exemplary compounds of the invention in 5 mM sodium phosphate, pH 9 with 0.1% Triton X-100. Black lines are absorbance spectra; grey lines are emission spectra. a) VF1.4.Cl, b) VF2.4.Cl, and c) VF2.1.Cl.
All dyes feature emission and excitation profiles typical of dichlorofluoresceins (VF1.4.Cl: λmax=521 nm, ε=93,000 M^−1·cm^−1, λem=534 nm, Φ=0.24; VF2.4.Cl: λmax=522 nm, ε=97,000 M^−1·cm^−1, λem=536 nm, Φ=0.054; VF2.1.Cl: λmax=522 nm, ε=98 000 M^−1·cm^−1, λcm=535 nm, Φ=0.057, 5 mM sodium phosphate, pH 9, 0.1% Triton X-100) (FIG. 8).
UV absorbance and fluorescence spectra were recorded on a Cary 3E (Varian) and Fluorolog 2 (Spex) fluorimeter, respectively. Analytical, semi-preparative, and preparative HPLCs were performed on Agilent HPLCs, with Luna C18(2) columns (Phenomenex) using water (solvent A) and acetonitrile (solvent B) with 0.05% TFA as an additive. Low resolution ESI mass spectrometry was performed on an Agilent LC/MSD Trap XCT coupled to an Agilent HPLC. High resolution mass spectra were acquired on a ThermoFisher Orbitrap XL hybrid mass spectrometer. ^1H NMR spectra were collected in CDCl3 or d6-DMSO (Cambridge Isotope Laboratories, Cambridge, Mass.) at 25° C. on a 400 Varian Mercury Plus or Jeol ECA 500 spectrometer at the Department of Chemistry and Biochemistry NMR Facility at the University of California, San Diego. All chemical shifts are reported in the standard δ notation of parts per million using the peak of residual proton signals of CDCl3 or d6-DMSO as an internal reference.

With `CN(C)c1ccc(/C=C/c2ccc(/C=C/c3ccc(-c4c5cc(Cl)c(=O)cc-5oc5cc(O)c(Cl)cc45)c(S(=O)(=O)O)c3)cc2)cc1` [VF2.1.Cl, 5-(4-(4-(dimethyllamino)styryl)styryl)-2-(2,7-dichloro-6-hydroxy-3-oxo-3H-xanthen-9-yl)benzenesulfonic acid], in the data set on HEK cells, the bleach rate is 8.0±0.1×10^−3 s^−1 and the “bleach rate, fold smaller than di-4-ANEPPS” value is reported as “ninefold smaller”. Moreover, in data set [1], the Φ stood at 0.057, the ε is given as 98 000 M^−1·cm^−1, the λem came to 535 nm and the λmax stood at 522 nm.

As for `CCCCN(CCCC)c1ccc(/C=C/c2ccc(/C=C/c3ccc(-c4c5cc(Cl)c(=O)cc-5oc5cc(O)c(Cl)cc45)c(S(=O)(=O)O)c3)cc2)cc1` [VF2.4.Cl, 5-(4-(4-(dibutylamino)styryl)styryl)-2-(2,7-dichloro-6-hydroxy-3-oxo-3H-xanthen-9-yl)benzenesulfonic acid], in the data set on HEK cells, the bleach rate was 1.8±0.1×10^−2 s^−1 and the “bleach rate, fold smaller than di-4-ANEPPS” value is reported as “four-”. Besides, in data set [1], the Φ worked out at 0.054, the ε is reported as 97,000 M^−1·cm^−1, the λem is on record as 536 nm and the λmax is 522 nm.
